Results: article PMC12621043, “Un-LOK-ing a New Approach for Conformational Selective Targeting of STK10 (LOK)” (ACS Medicinal Chemistry Letters, 2025)

What was measured:
NEK1A = target: T1, NEK1A (Homo sapiens, UniProt Q96PY6); assay: DSF Tm panel; assay type: binding; details: 10 μM compound
T1 construct: purchased in-house DSF kinase panel (SGC-style construct names; the trailing letter is the construct ID)
T1 sequence (Q96PY6 1-328): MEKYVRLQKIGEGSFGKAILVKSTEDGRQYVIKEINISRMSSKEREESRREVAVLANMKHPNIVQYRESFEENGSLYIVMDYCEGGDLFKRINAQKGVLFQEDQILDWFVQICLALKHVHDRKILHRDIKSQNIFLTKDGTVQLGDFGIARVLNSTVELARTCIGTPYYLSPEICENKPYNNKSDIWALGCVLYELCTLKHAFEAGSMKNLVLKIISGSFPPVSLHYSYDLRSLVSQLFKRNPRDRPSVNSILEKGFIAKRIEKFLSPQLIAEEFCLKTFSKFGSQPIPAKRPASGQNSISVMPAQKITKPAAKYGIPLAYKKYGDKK

ABL1 (ABL1A) = target: T2, ABL1 (ABL1A) (Homo sapiens, UniProt P00519); assay: DSF Tm panel; assay type: binding; details: 10 μM compound
T2 construct: purchased in-house DSF kinase panel (SGC-style construct names; the trailing letter is the construct ID)
T2 sequence (P00519 229-512): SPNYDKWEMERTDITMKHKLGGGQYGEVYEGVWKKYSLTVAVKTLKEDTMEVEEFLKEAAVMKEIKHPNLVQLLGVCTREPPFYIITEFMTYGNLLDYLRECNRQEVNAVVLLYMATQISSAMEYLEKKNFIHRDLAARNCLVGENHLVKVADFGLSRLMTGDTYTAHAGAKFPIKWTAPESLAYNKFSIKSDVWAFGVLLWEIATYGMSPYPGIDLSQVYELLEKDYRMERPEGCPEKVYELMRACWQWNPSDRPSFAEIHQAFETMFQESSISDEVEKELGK

CAMKK2B = target: T3, CAMKK2B (Homo sapiens, UniProt Q96RR4); assay: DSF Tm panel; assay type: binding; details: 10 μM compound
T3 construct: purchased in-house DSF kinase panel (SGC-style construct names; the trailing letter is the construct ID)

MST4A = target: T4, MST4A (Homo sapiens, UniProt Q9P289); assay: DSF Tm panel; assay type: binding; details: 10 μM compound
T4 construct: purchased in-house DSF kinase panel (SGC-style construct names; the trailing letter is the construct ID)

STK4 (STK4A) = target: T5, STK4 (STK4A) (Homo sapiens, UniProt Q13043); assay: DSF Tm panel; assay type: binding; details: 10 μM compound
T5 construct: purchased in-house DSF kinase panel (SGC-style construct names; the trailing letter is the construct ID)
T5 sequence (Q13043 1-311): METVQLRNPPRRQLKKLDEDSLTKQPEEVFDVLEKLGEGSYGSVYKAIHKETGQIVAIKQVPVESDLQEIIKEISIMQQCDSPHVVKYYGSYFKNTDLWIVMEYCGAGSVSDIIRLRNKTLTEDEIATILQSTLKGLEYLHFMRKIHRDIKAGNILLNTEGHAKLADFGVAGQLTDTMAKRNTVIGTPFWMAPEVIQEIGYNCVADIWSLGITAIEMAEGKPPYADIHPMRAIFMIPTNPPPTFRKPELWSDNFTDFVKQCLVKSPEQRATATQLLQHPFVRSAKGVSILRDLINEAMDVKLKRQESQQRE

MAP3K5A = target: T6, MAP3K5A (Homo sapiens, UniProt Q99683); assay: DSF Tm panel; assay type: binding; details: 10 μM compound
T6 construct: purchased in-house DSF kinase panel (SGC-style construct names; the trailing letter is the construct ID)

MELKA = target: T7, MELKA (Homo sapiens, UniProt Q14680); assay: DSF Tm panel; assay type: binding; details: 10 μM compound
T7 construct: purchased in-house DSF kinase panel (SGC-style construct names; the trailing letter is the construct ID)

SRPK1A = target: T8, SRPK1A (Homo sapiens, UniProt Q96SB4); assay: DSF Tm panel; assay type: binding; details: 10 μM compound
T8 construct: purchased in-house DSF kinase panel (SGC-style construct names; the trailing letter is the construct ID)

AAK1 (AAK1A) = target: T9, AAK1 (AAK1A) (Homo sapiens, UniProt Q2M2I8); assay: DSF Tm panel; assay type: binding; details: 10 μM compound
T9 construct: purchased in-house DSF kinase panel (SGC-style construct names; the trailing letter is the construct ID)

CDC42BPAA = assay: DSF Tm panel; assay type: binding; details: 10 μM compound
SLK = SLK (Homo sapiens, UniProt Q9H2G2); assay: NanoBRET target engagement assay; assay type: cell-based; set-up: has a greater impact on the full-length protein than on the kinase domains; host or cells: HEK293T (ATCC CRL-3216); details: HEK293T cells
DYRK1AA = target: T10, DYRK1AA (Homo sapiens, UniProt Q13627); assay: DSF Tm panel; assay type: binding; details: 10 μM compound
T10 construct: purchased in-house DSF kinase panel (SGC-style construct names; the trailing letter is the construct ID)

MAPK15A (MAPK15HSD) = target: T11, MAPK15A (MAPK15HSD) (Homo sapiens, UniProt Q8TD08); assay: DSF Tm panel; assay type: binding; details: 10 μM compound
T11 sequence (Q8TD08 13-304 limits assumed): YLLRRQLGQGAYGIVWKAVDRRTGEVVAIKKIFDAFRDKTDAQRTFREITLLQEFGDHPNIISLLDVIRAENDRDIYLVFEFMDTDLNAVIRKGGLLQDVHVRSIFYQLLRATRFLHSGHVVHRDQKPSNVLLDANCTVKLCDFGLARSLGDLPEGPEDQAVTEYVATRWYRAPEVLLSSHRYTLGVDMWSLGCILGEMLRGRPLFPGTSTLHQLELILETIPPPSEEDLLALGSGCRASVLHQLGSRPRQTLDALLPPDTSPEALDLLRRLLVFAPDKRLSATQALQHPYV

RPS6KA1A = assay: DSF Tm panel; assay type: binding; details: 10 μM compound
UKL3A (ULK3A) = target: T12, UKL3A (ULK3A) (Homo sapiens, UniProt Q6PHR2); assay: DSF Tm panel; assay type: binding; details: 10 μM compound
T12 construct: purchased in-house DSF kinase panel (SGC-style construct names; the trailing letter is the construct ID)
T12 sequence (Q6PHR2 1-279): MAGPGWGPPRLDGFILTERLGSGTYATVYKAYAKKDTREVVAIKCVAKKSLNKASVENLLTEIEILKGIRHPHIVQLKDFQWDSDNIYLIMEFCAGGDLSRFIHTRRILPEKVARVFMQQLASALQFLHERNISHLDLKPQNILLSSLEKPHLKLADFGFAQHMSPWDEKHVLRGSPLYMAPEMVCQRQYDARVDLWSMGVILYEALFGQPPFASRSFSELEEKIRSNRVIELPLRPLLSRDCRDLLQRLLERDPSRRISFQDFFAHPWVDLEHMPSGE

STK17BA = target: T13, STK17BA (Homo sapiens, UniProt O94768); assay: DSF Tm panel; assay type: binding; details: 10 μM compound
T13 construct: purchased in-house DSF kinase panel (SGC-style construct names; the trailing letter is the construct ID)
T13 sequence (O94768 25-329): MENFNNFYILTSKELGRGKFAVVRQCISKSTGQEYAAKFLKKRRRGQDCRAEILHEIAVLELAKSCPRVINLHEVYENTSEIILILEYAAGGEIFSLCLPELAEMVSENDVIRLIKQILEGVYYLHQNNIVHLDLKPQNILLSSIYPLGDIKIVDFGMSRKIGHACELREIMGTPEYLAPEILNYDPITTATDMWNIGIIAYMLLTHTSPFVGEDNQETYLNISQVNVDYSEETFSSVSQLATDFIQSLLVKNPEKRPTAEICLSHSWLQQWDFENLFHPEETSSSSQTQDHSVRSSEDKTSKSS

AKT3A = target: T14, AKT3A (Homo sapiens, UniProt Q9Y243); assay: DSF Tm panel; assay type: binding; details: 10 μM compound
T14 construct: purchased in-house DSF kinase panel (SGC-style construct names; the trailing letter is the construct ID)

MAPK10A = target: T15, MAPK10A (Homo sapiens, UniProt P53779); assay: DSF Tm panel; assay type: binding; details: 10 μM compound
T15 construct: purchased in-house DSF kinase panel (SGC-style construct names; the trailing letter is the construct ID)

MST3A = target: T16, MST3A (Homo sapiens, UniProt Q9Y6E0); assay: DSF Tm panel; assay type: binding; details: 10 μM compound
T16 construct: purchased in-house DSF kinase panel (SGC-style construct names; the trailing letter is the construct ID)
T16 sequence (Q9Y6E0 whole entry): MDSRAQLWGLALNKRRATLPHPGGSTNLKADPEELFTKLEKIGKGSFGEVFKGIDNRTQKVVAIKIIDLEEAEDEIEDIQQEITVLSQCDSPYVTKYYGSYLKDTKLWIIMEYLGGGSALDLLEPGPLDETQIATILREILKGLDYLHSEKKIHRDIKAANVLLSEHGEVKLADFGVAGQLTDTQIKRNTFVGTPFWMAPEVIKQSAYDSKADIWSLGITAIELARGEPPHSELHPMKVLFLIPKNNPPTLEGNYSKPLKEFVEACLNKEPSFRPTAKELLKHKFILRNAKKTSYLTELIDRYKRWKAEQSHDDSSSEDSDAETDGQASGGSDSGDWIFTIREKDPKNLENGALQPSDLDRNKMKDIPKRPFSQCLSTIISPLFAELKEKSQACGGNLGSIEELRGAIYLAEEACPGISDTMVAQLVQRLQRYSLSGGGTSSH

T15 sequence (P53779 39-402): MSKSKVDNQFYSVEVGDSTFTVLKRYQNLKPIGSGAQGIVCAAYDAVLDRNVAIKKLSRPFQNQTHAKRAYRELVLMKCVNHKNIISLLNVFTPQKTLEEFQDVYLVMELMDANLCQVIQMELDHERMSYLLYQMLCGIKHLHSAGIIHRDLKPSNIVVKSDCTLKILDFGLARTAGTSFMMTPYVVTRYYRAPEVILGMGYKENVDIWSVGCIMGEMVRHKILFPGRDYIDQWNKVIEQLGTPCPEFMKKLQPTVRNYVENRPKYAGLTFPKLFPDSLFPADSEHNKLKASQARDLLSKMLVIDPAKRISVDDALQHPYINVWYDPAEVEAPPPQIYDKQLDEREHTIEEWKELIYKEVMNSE
T3 sequence (Q96RR4 161-449): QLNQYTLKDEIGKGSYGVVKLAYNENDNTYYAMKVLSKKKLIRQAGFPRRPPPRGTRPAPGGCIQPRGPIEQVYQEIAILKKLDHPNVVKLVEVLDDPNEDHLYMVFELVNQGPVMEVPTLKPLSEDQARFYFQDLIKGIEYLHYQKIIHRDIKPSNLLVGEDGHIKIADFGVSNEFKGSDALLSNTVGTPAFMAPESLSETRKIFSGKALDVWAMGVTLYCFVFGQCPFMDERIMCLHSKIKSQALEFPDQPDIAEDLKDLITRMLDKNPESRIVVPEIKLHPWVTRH
T6 sequence (Q99683 659-951): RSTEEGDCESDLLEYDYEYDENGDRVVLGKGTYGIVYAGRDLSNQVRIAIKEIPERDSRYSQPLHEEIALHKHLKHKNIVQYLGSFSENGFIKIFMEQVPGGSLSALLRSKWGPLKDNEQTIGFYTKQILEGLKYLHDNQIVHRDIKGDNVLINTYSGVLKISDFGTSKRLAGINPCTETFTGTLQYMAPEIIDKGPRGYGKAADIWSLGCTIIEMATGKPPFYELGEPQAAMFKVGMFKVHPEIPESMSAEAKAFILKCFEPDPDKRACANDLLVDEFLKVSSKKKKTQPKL
T7 sequence (Q14680 1-340): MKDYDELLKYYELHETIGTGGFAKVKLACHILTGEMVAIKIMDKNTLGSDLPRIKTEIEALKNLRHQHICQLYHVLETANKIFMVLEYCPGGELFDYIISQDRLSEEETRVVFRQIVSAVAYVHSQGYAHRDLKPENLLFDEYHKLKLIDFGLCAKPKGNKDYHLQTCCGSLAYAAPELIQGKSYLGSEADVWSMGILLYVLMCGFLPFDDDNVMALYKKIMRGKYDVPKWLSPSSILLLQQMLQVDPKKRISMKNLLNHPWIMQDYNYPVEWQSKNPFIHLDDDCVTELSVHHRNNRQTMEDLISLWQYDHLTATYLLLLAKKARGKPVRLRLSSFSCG
T14 sequence (Q9Y243 148-479): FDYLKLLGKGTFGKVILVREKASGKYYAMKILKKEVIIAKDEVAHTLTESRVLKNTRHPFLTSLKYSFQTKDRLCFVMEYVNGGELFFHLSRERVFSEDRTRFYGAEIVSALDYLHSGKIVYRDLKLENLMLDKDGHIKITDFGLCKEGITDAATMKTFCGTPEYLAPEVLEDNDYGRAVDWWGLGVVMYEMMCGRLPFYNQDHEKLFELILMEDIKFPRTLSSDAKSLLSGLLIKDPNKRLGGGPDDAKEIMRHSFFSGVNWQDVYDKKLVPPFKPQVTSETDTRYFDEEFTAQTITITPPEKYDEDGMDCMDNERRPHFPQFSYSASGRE
T9 sequence (Q2M2I8 27-365): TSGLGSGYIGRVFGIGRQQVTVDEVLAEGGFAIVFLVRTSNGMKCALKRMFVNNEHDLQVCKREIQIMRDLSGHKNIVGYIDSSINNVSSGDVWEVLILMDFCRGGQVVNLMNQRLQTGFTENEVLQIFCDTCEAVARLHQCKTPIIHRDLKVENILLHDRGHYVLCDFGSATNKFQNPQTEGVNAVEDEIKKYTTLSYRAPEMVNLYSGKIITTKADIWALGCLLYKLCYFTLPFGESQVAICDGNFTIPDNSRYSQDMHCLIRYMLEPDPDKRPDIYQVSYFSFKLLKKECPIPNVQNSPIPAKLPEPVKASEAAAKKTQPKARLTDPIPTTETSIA
Chain of SLK (Q9H2G2 whole entry, the tested form may be a part): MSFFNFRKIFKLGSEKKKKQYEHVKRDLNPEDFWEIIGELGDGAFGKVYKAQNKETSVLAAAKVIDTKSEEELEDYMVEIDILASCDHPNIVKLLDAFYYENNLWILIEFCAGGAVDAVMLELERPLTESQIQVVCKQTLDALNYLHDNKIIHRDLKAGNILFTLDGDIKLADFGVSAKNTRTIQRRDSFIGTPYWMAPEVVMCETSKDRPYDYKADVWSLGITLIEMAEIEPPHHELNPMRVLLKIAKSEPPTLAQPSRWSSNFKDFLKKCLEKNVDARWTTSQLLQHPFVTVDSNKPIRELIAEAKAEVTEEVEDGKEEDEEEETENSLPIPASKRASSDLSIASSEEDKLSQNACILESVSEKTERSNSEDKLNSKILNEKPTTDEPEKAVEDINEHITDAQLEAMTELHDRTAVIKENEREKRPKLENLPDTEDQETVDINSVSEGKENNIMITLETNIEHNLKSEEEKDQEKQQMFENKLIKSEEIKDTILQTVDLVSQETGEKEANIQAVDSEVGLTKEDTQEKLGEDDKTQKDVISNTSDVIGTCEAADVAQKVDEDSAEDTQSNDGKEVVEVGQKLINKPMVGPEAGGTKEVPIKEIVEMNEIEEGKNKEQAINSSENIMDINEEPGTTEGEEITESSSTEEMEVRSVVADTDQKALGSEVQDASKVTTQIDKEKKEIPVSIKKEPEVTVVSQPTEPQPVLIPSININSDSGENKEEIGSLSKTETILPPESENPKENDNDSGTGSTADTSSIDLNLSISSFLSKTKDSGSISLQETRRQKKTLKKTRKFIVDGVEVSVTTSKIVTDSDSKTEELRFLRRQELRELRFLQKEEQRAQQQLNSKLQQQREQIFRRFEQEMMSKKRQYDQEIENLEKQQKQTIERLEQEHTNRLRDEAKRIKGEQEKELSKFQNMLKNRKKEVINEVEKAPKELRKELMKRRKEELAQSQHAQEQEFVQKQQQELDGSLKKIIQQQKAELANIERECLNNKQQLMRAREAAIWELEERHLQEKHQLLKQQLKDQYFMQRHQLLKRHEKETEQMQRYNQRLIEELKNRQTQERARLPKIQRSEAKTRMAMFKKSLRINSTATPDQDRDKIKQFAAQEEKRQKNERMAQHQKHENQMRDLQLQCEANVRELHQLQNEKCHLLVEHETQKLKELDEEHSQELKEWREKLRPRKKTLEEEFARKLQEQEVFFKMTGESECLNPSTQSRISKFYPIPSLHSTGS
T4 sequence (Q9P289 1-300): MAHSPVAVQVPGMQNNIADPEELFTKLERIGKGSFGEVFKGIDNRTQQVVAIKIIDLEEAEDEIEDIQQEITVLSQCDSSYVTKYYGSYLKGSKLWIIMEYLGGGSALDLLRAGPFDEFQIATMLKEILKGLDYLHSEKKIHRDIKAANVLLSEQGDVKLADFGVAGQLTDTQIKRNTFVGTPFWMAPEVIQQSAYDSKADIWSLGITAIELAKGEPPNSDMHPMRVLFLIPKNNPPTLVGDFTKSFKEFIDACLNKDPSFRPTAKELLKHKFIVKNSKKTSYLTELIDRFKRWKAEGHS
T8 sequence (Q96SB4 80-653): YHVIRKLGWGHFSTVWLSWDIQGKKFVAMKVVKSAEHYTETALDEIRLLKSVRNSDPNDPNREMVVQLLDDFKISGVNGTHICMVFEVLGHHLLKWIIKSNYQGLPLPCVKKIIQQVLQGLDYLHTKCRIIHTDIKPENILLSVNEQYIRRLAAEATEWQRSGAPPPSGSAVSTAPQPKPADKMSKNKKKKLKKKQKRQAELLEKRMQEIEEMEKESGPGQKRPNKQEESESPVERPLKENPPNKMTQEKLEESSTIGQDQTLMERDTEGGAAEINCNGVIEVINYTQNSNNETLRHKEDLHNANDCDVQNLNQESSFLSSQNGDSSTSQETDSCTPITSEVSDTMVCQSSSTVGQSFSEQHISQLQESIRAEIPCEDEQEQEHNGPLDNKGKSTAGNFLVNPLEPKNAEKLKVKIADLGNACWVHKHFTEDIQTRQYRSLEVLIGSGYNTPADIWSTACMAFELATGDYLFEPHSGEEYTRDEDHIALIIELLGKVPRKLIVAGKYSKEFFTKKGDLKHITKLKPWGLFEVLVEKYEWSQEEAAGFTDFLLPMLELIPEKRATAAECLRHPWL

Compound | ΔTm at 10 µM (NEK1A) | ΔTm at 10 µM (ABL1 (ABL1A)) | ΔTm at 10 µM (CAMKK2B) | ΔTm at 10 µM (MST4A) | ΔTm at 10 µM (STK4 (STK4A)) | ΔTm at 10 µM (MAP3K5A) | ΔTm at 10 µM (MELKA) | ΔTm at 10 µM (SRPK1A) | ΔTm at 10 µM (AAK1 (AAK1A)) | ΔTm CDC42BPAA (CDC42BPAA) | EC50 (SLK) | ΔTm at 10 µM (DYRK1AA) | ΔTm at 10 µM (MAPK15A (MAPK15HSD)) | ΔTm RPS6KA1A (RPS6KA1A) | ΔTm at 10 µM (UKL3A (ULK3A)) | ΔTm at 10 µM (STK17BA) | ΔTm at 10 µM (AKT3A) | ΔTm at 10 µM (MAPK10A) | ΔTm at 10 µM (MST3A)
O=C(NCc1ccccc1)Nc1ccc2cc1OCCOCCNc1ccn3ncc-2c3n1 [compound 16] | 0.1 °C | 1.2 °C | 3.8 °C | 1.3 °C | 4.9 °C | 2 °C | 2 °C | 0 °C | 8.3 °C | -0,2 °C | > 50 µM | 3.8 °C | 4.9 °C | 1,4 °C | 6.8 °C | 1.3 °C | 0 °C | -0.3 °C | 1.5 °C
O=C(NCc1ccccc1Cl)Nc1ccc2cc1OCCOCCNc1ccn3ncc-2c3n1 [compound 17] | 0.2 °C | 1.7 °C | 3.3 °C | 0.7 °C | 4.1 °C | 1 °C | 2.4 °C | 0 °C | 7 °C | 0,1 °C | > 50 µM | -1.3 °C | 6 °C | 1,2 °C | 3.2 °C | 4.1 °C | -0.3 °C | 0.2 °C | 0.7 °C
O=C(NCc1cccc(Cl)c1)Nc1ccc2cc1OCCOCCNc1ccn3ncc-2c3n1 [compound 18] | 0.2 °C | 1.8 °C | 3.1 °C | 0.8 °C | 4.5 °C | 1.6 °C | 1.5 °C | -0.3 °C | 5.5 °C | 0,0 °C | > 50 µM | 1.1 °C | 2.3 °C | 0,7 °C | 4.6 °C | 2.4 °C | -0.4 °C | 0.6 °C | 0.7 °C
O=C(NCc1ccc(Cl)cc1)Nc1ccc2cc1OCCOCCNc1ccn3ncc-2c3n1 [compound 19] | -0.2 °C | 1.8 °C | 3.4 °C | 1.1 °C | 5.5 °C | 1.4 °C | 1.5 °C | 0.2 °C | 7.1 °C | 0,0 °C | > 50 µM | -1 °C | 1.8 °C | 0,4 °C | 4.6 °C | 1.2 °C | -0.4 °C | 0.8 °C | 0.7 °C
O=C(NCc1ccc(Cl)cc1Cl)Nc1ccc2cc1OCCOCCNc1ccn3ncc-2c3n1 [compound 20] | 0.7 °C | 2.2 °C | 1.2 °C | 0.5 °C | 3.6 °C | 2.2 °C | 0.9 °C | 0.6 °C | 6.3 °C | 0,7 °C | > 50 µM | 0.6 °C | 1.3 °C | 0,9 °C | 2.3 °C | 2.8 °C | 0.4 °C | 1.6 °C | 0 °C
COc1ccc(CNC(=O)Nc2ccc3cc2OCCOCCNc2ccn4ncc-3c4n2)cc1 [compound 31] | -0.4 °C | 1.7 °C | 1.8 °C | 0.9 °C | 4.1 °C | 1.6 °C | 1.7 °C | 0.1 °C | 6.7 °C | 0,0 °C |  | 0.3 °C | 4.1 °C |  | 6.1 °C | 2.6 °C | 1.6 °C | 0.7 °C | -5.3 °C
